Source: the Kinase Knowledgebase extract (Sharma et al. 2016)

Target: CDK2 (human) (UniProt P24941)
Test: Cell-Based Assay

| IC50 (a549) [µM] | IC50 (ht-29) [µM] | IC50 (saos-2) [µM] | IC50 (hs-27) [µM] | IC50 (imr90) [µM] | IC50 (w138) [µM] | IC50 (hela) [µM] | IC50 (mcf-7) [µM] | SMILES |
| --- | --- | --- | --- | --- | --- | --- | --- | --- |
| – | – | – | 15.1 | 20.8 | 9.6 | – | – | Cc1[nH]c(C#N)c(C)c1-c1ccnc(Nc2ccc(F)cc2)n1 |
| – | – | 0.9 | – | – | – | – | – | Cc1[nH]c(C#N)c(C)c1-c1ccnc(Nc2cccc(O)c2)n1 |
| 4.37 | 3.27 | 5.88 | – | – | – | – | – | Cc1cc(Nc2nccc(-c3c(C)[nH]c(C#N)c3C)n2)ccc1Cl |
| 3.64 | 0.95 | 3.4 | – | – | – | – | – | Cc1[nH]c(C#N)c(C)c1-c1ccnc(Nc2ccc(C(F)(F)F)cc2)n1 |
| 1.41 | 0.17 | 1.5 | – | – | – | – | – | Cc1[nH]c(C#N)c(C)c1-c1ccnc(Nc2ccc(N(C)C)cc2)n1 |
| 1.49 | 0.28 | 2.23 | – | – | – | – | – | Cc1ccc(Nc2nccc(-c3c(C)[nH]c(C#N)c3C)n2)cc1F |
| 0.51 | 0.11 | 0.75 | 35.1 | 37.3 | 21.3 | 0.09 | 0.45 | Cc1[nH]c(C#N)c(C)c1-c1ccnc(Nc2ccc(I)cc2)n1 |
| 3.6 | 0.72 | 3.12 | – | – | – | – | – | Cc1ccc(Nc2nccc(-c3c(C)[nH]c(C#N)c3C)n2)cc1I |

Continued, compound first:

| SMILES | IC50 (a549) [µM] | IC50 (ht-29) [µM] | IC50 (saos-2) [µM] | IC50 (hs-27) [µM] | IC50 (imr90) [µM] | IC50 (w138) [µM] | IC50 (hela) [µM] | IC50 (mcf-7) [µM] |
| --- | --- | --- | --- | --- | --- | --- | --- | --- |
| Cc1[nH]c(CN(C)C)c(C)c1-c1ccnc(Nc2ccc(F)cc2)n1 | 2.76 | 3.2 | 0.7 | – | – | – | – | – |
| Cc1c[nH]c(C)c1-c1ccnc(Nc2ccc(I)c(Cl)c2)n1 | 4.39 | – | – | – | – | – | – | – |
| Cc1c[nH]c(C)c1-c1ccnc(Nc2ccc(C(F)(F)F)cc2)n1 | 15 | 3.1 | 17 | – | – | – | – | – |
| CCN(CC)Cc1[nH]c(C)c(-c2ccnc(Nc3ccc(F)cc3)n2)c1C | 0.97 | 1.31 | 1.61 | – | – | – | – | – |
| Cc1[nH]c(Br)c(C)c1-c1ccnc(Nc2cccc([N+](=O)[O-])c2)n1 | 7.56 | 2.92 | 12.4 | – | – | – | – | – |
| Cc1[nH]c(CN2CCN(C)CC2)c(C)c1-c1ccnc(Nc2ccc(F)cc2)n1 | 13.8 | 5.09 | 14.2 | – | – | – | – | – |
| Cc1[nH]c([N+](=O)[O-])c(C)c1-c1ccnc(Nc2ccc(N(C)C)cc2)n1 | 3.05 | 0.61 | 2.65 | – | – | – | – | – |
